Test results taken from patent US20060025394A1, “Estradiol-related compounds and methods of use as anti-tumor agents” (priority 2003, published 2006).

Legend:
MCF-7 = test: Cytotoxicity testing (Example 7), MTS, MCF-7; assay type: cell-based
Protocol: (§1) Cytotoxicity Studies were done in DU-145 and MCF-7 Cells. […] We set out to test the efficacy of these compounds based on known affinities for ER-α previously reported. Cells were treated for five days with 1 mM of each compound in a defined media. Cell number was estimated by the MTS method. Similar studies were carried out in the MCF-7 cell line known to express both ER-α and -β, and display proliferative properties in the presence of classic estrogens.

DU-145 = test: Cytotoxicity testing (Example 7), MTS, DU-145; assay type: cell-based; conditions: for DU145 % Cell#: five days, MTS
Protocol: as §1

DU145 = test: MTS cell viability assay in DU145; assay type: cell-based; conditions: DU145, concentrations above 1 μM
Protocol: (§2) DU145, LNCaP, PC3, and MCF-7 cells were obtained from the American Type Culture Collection (Manassas, Va.). DU145, PC3, and MCF-7 cells were maintained in Dulbecco's modified Eagle's medium/F-12 supplemented with 5% heat inactivated Fetal Calf Serum and Penicillin/Streptomycin (Invitrogen Life Technologies, Carlsbad, Calif.). LNCaP cells were maintained in RPMI 1640 medium supplemented in the same fashion. Cells were cultured in 75 cm^2 flasks (Falcon, BD Biosciences, Bedford, Mass.) at 37° C. and 5% CO2. For the MTS assay (Example 3), five thousand cells were plated in each well of a 24 well plate (Falcon), were allowed to attach for a 48-hour period in the media described, and changed to a defined medium, (DMEM/F-12 or RPMI1640) supplemented with insulin (BD Biosciences). A 1000× solution of the compound of interest solubilized in DMSO (Sigma, Saint Louis, Mo.) was diluted in the defined media just prior to starting each experiment, and media was refreshed every 48 to 72 hours throughout the experiments.
(§3) . Upon completing five days of treatment, the medium in each well was exchanged for 400 μL of an MTS solution (3-(4,5-dimethylthiazol-2-yl)-5-(3-carboxymethoxyphenyl)-2-(4-sulfophenyl)-2H-tetrazolium, inner salt; O'Toole SA, 2003, Cancer Detect Prev., 2003;27(1):47-54) spiked into media as per the manufacture's instructions (Promega, Madison, Wis.) and incubated for 2 hours at 37° C. before reading the absorbance on the μQuant UV/VIS plate reader, in conjunction with KCjunior Software (Bio-Tek Instruments, Winooski, Vt.) set at 490 nm. All experiments were carried out in quadruplicate, control wells were treated with the carrier DMSO. E2, which is estradiol-17β (Steraloids®, Newport, R.I.) and resveratrol (Sigma) were used as controls. […]

[1] = tested on: DU145, PC3, and LNCaP cell lines; test: MTS assay, values averaged or stated over the CaP cell lines; assay type: cell-based; conditions: average
Protocol: as §2, §3

NCR nude mice = conditions: 5 to 40 mg/kg/day bolus IM injection, 40-day period
Protocol: Doses included 5 to 40 mg/kg/day bolus IM injection. Toxicity effects were gauged based on changes in animal weight and gross analysis of specific organs including liver, lung, prostate, brain, spleen, heart, and kidney, collected, and fixed in paraffin sections.

[2] = Table 3, five days, 1 mM of each compound, defined media
[3] = Table 3, 1 mM of each compound, defined media
[4] = Table 4 comparative study, five days, 1 mM
[5] = Table 4 comparative study, 1 mM

CC12CCC3c4ccc(O)cc4CCC3C1CCC2(O)C=Cc1ccccc1C(F)(F)F (stereo not shown) [Compound 19]
MCF-7 % Cell# (MCF-7; [2]): 20%
overall result in cytotoxicity testing (Table 3) (DU-145): good results
DU145 % Cell# (DU-145; [3]): 5%

Cc1ccc(C=CC2(O)CCC3C4CCc5cc(O)ccc5C4CCC32C)cc1 (stereo not shown) [Compound 3]
MCF-7 % Cell# (MCF-7; [2]): 23%
DU145 % Cell# (DU-145; [3]): 33%

CC12CCC3c4ccc(O)cc4CCC3C1CCC2(O)C=Cc1ccccc1CO (stereo not shown) [Compound 20]
MCF-7 % Cell# (MCF-7; [2]): 24%
DU145 % Cell# (DU-145; [3]): 97%

C[C@]1(O)CC[C@H]2[C@@H]3CCC4=CC(=O)CCC4=C3C=C[C@@]21C [Compound 29, RU 1881, reference compound]
MCF-7 % Cell# (MCF-7; [4]): 94%
DU145 % Cell# (DU-145; [5]): 99%

CC12CCC3c4ccc(O)cc4CCC3C1CCC2(O)C=Cc1ccc(F)cc1 (stereo not shown) [Compound 9]
MCF-7 % Cell# (MCF-7; [2]): 27%
overall result in cytotoxicity testing (Table 3) (DU-145): good results
DU145 % Cell# (DU-145; [3]): 17%

C#C[C@]1(O)CC[C@H]2[C@@H]3CCC4=Cc5oncc5C[C@]4(C)[C@H]3CC[C@@]21C [Compound 35, Danazol, reference compound]
MCF-7 % Cell# (MCF-7; [4]): 107%
DU145 % Cell# (DU-145; [5]): 92%

CC/C(=C(\c1ccccc1)c1ccc(OCCN(C)C)cc1)c1ccccc1 [Compound 27, ICI 47, 699, reference compound]
MCF-7 % Cell# (MCF-7; [4]): 21%
DU145 % Cell# (DU-145; [5]): 12%

COC(=O)c1ccc(C=CC2(O)CCC3C4CCc5cc(O)ccc5C4CCC32C)cc1 (stereo not shown) [Compound 15]
MCF-7 % Cell# (MCF-7; [2]): 32%
DU145 % Cell# (DU-145; [3]): 92%

CC12CCC3c4ccc(O)cc4CCC3C1CCC2(O)C=CBr (stereo not drawn) [Compound 22, 17α-Br-vinyl-E2, reference compound]
MCF-7 % Cell# (MCF-7; [2]): 59%
DU145 % Cell# (DU-145; [3]): 91%

CC12CCC3c4ccc(O)cc4CCC3C1CCC2(O)C=Cc1ccc(C(=O)O)cc1 (stereo not shown) [Compound 8]
MCF-7 % Cell# (MCF-7; [2]): 120%
DU145 % Cell# (DU-145; [3]): 99%

CC12CCC3c4ccc(O)cc4CCC3C1CCC2(O)C=Cc1ccccc1F (stereo not shown) [Compound 2]
MCF-7 % Cell# (MCF-7; [2]): 40%
DU145 % Cell# (DU-145; [3]): 80%

CC12CCC3c4ccc(O)cc4CCC3C1CCC2(O)C=Cc1ccccc1C(=O)O (stereo not shown) [Compound 24]
MCF-7 % Cell# (MCF-7; [2]): 61%
DU145 % Cell# (DU-145; [3]): 103%

CC12CCC3c4ccc(O)cc4CCC3C1CCC2(O)C=Cc1ccc([N+](=O)[O-])cc1 (stereo not shown) [Compound 46]
MCF-7 % Cell# (MCF-7; [2]): 35%
DU145 % Cell# (DU-145; [3]): 44%

COC(=O)c1ccc(C=CC2(O)CCC3C4CCc5cc(O)ccc5C4CCC32C)cc1 (stereo not shown) [Compound 4]
MCF-7 % Cell# (MCF-7; [2]): 28%
DU145 % Cell# (DU-145; [3]): 100%

COC(=O)c1ccccc1C=CC1(O)CCC2C3CCc4cc(O)ccc4C3CCC21C (stereo not shown) [Compound 12]
MCF-7 % Cell# (MCF-7; [2]): 30%
DU145 % Cell# (DU-145; [3]): 92%

CC12CCC3c4ccc(O)cc4CCC3C1CCC2(O)C=Cc1ccc(F)cc1 (stereo not shown) [Compound 6]
MCF-7 % Cell# (MCF-7; [2]): 28%
DU145 % Cell# (DU-145; [3]): 67%

C[C@]12C[C@H](c3ccc(OCCCCCS(=O)(=O)CCCC(F)(F)C(F)(F)F)cc3)[C@@H]3c4ccc(O)cc4CC[C@H]3[C@@H]1CC[C@@H]2O [Compound 26, RU 58668, reference compound]
MCF-7 % Cell# (MCF-7; [4]): 37%
DU145 % Cell# (DU-145; [5]): 73%

C=CC1(O)CCC2C3CCc4cc(O)ccc4C3CCC21C (stereo not drawn) [Compound 13, 17α-vinyl-E2, reference compound]
MCF-7 % Cell# (MCF-7; [2]): 53%
DU145 % Cell# (DU-145; [3]): 98%

C#C[C@]1(O)CC[C@H]2[C@@H]3CCc4cc(O)ccc4[C@H]3[C@H](OC)C[C@@]21C [Compound 37, RU16117, reference compound]
MCF-7 % Cell# (MCF-7; [4]): 103%
DU145 % Cell# (DU-145; [5]): 101%

C[C@]12CC[C@@H]3c4ccc(O)cc4C[C@@H](CCCCCCCCC[S+]([O-])CCCC(F)(F)C(F)(F)F)[C@H]3[C@@H]1CC[C@@H]2O (stereo partly shown) [Compound 32, ICI-182780, reference compound]
MCF-7 % Cell# (MCF-7; [4]): 62%
DU145 % Cell# (DU-145; [5]): 94%

C[C@]12CC[C@@H]3c4ccc(O)cc4CC[C@H]3[C@@H]1CC[C@@H]2O [Compound E2, estradiol-17β, reference compound]
cytotoxic or proliferative effects (DU145): no apparent cytotoxic or proliferative effects
difference in cell number over non-treated cells ([1]; negative control): 0±3.4%
MCF-7 % Cell# (MCF-7; [2]): 90%
MCF-7 % Cell# (MCF-7; [4]): 90%
DU145 % Cell# (DU-145; [3]): 100%
DU145 % Cell# (DU-145; [5]): 100%

COc1ccc2c(c1)CCC(c1ccccc1)=C2c1ccc(OCCN2CCCC2)cc1.Cl [Compound 34, 4-11, 100A, reference compound]
MCF-7 % Cell# (MCF-7; [4]): 32%
DU145 % Cell# (DU-145; [5]): 29%

CC/C(=C(\c1ccccc1)c1ccc(OCCN(C)C)cc1)c1ccccc1 [Compound 33, Z-TAM, reference compound]
MCF-7 % Cell# (MCF-7; [4]): 25%
DU145 % Cell# (DU-145; [5]): 56%

CC12CCC3c4ccc(O)cc4CCC3C1CCC2(O)C=Cc1cccc(C(F)(F)F)c1 (stereo not shown) [Compound 23]
MCF-7 % Cell# (MCF-7; [2]): 19%
overall result in cytotoxicity testing (Table 3) (DU-145): good results
DU145 % Cell# (DU-145; [3]): 5%

CC12CCC3c4ccc(O)cc4CCC3C1CCC2(O)C=Cc1ccccc1 (stereo not shown) [Compound 1]
MCF-7 % Cell# (MCF-7; [2]): 22%
DU145 % Cell# (DU-145; [3]): 62%

CC12CCC3c4ccc(O)cc4CCC3C1CCC2(O)C=Cc1ccc(C(F)(F)F)cc1 (stereo not shown) [Compound 25]
MCF-7 % Cell# (MCF-7; [2]): 13%
overall result in cytotoxicity testing (Table 3) (DU-145): good results
DU145 % Cell# (DU-145; [3]): 5%
general toxicity (animal weight, gross analysis of organs) (NCR nude mice): No apparent detrimental effects

COc1ccc(C=CC2(O)CCC3C4CCc5cc(O)ccc5C4CCC32C)cc1 (stereo not shown) [Compound 11]
MCF-7 % Cell# (MCF-7; [2]): 28%
DU145 % Cell# (DU-145; [3]): 60%

CC/C(=C(\c1ccccc1)c1ccc(OCCN(C)C)cc1)c1ccccc1.O=C(O)CC(O)(CC(=O)O)C(=O)O [Compound 30, TAM Citr, reference compound]
MCF-7 % Cell# (MCF-7; [4]): 33%
DU145 % Cell# (DU-145; [5]): 47%

Cc1cccc(C=CC2(O)CCC3C4CCc5cc(O)ccc5C4CCC32C)c1 (stereo not shown) [Compound 5]
MCF-7 % Cell# (MCF-7; [2]): 24%
overall result in cytotoxicity testing (Table 3) (DU-145): good results
DU145 % Cell# (DU-145; [3]): 9%

CC12CCC3c4ccc(O)cc4CCC3C1CCC2(O)C=Cc1ccccc1 (stereo not shown) [Compound 48]
MCF-7 % Cell# (MCF-7; [2]): 27%
DU145 % Cell# (DU-145; [3]): 47%

CC12CCC3c4ccc(O)cc4CCC3C1CCC2(O)C=Cc1ccccc1[N+](=O)[O-] (stereo not shown) [Compound 49]
MCF-7 % Cell# (MCF-7; [2]): 29%
DU145 % Cell# (DU-145; [3]): 17%

CN(C)CCOc1ccc([C@H]2C[C@]3(C)[C@@H](O)CC[C@H]3[C@@H]3CCc4cc(O)ccc4[C@H]32)cc1 [Compound 31, RU 39411, reference compound]
MCF-7 % Cell# (MCF-7; [4]): 102%
DU145 % Cell# (DU-145; [5]): 102%

Oc1ccc(C=Cc2cc(O)cc(O)c2)cc1 [resveratrol]
decrease in cell number ([1]; positive control): 65±5.3%

CC12CCC3c4ccc(O)cc4CCC3C1CCC2(O)C=Cc1ccccc1CO (stereo not shown) [Compound 16]
MCF-7 % Cell# (MCF-7; [2]): 55%
DU145 % Cell# (DU-145; [3]): 105%

CC12CCC3c4ccc(O)cc4CCC3C1CCC2(O)C=Cc1ccc(C#N)cc1 (stereo not shown) [Compound 10]
MCF-7 % Cell# (MCF-7; [2]): 23%
DU145 % Cell# (DU-145; [3]): 92%
